Legend:
Pseudomonas aeruginosa = test: Antimicrobial preservative efficacy test (dilution neutralization), preservative as WFI solution; assay type: cell-based
Text: (§1) Preservatives are commonly used in multi-dose formulations, including animal vaccines, to prevent bacterial or fungal growth in field conditions and are employed to minimize contamination of the formulations during repeated (non-sterile) punctures into the vial. Preservatives must pass antimicrobial effectiveness testing (AET), as described in the US pharmacopeia. As disclosed herein, Applicants performed the antimicrobial tests according to United States Pharmacopeia (USP), British Pharmacopeia (BP), and European Pharmocopeia (EP). Four test organisms were used: Candida albicans, Pseudomonas aeruginosa, Staphylococcus aureus, and A. brasiliensis. And while thimerosal and formol continue to play an important role in veterinary vaccines, European authorities encourage the development of vaccines that are free from those compounds.
(§2) For each concentration of polyamide polymer, dilution neutralization was carried out by inoculating 10 mL of test product with 100 μL of each test strain. Countings were performed at Do, 6 h (bacteria only), 24 h (bacteria only), D7, D14 and D28. For each counting, 1 mL of the sample was neutralized in 9 mL of neutralizing solution (10 minutes), for S. aureus, a second 1:10 dilution in the same solution. Then 1 mL of the mixture was transferred in Petri dishes and covered with 15 mL of agar medium (Trypcase Soy Agar for bacteria and Sabouraud Dextrosed Agar for yeasts and molds). The countings were achieved after 24-48 hours incubation at 32.5° C.±2.5° C. for bacteria, and 48-72 hours at 22.5° C.[…] for yeasts and molds. The test micro-organisms included Staphylococcus aureus, Pseudomonas aeruginosa, Candida albicans and Aspergillus brasiliensis. Finally, the neutralization solution contained: Tween 80 (10%), lecithin (2%), saponin (2%), sodium thiosulfate (0.5%) and buffered solution chloride. The saponin was from the bark of Quillaja saponaria.
(§3) For each concentration of octenidine, dilution neutralization was carried out as disclosed in Example 1.

Candida albicans = test: as above; assay type: cell-based
Text: as §1, §2, §3

Aspergillus brasiliensis = test: as above; assay type: cell-based
Text: as §1, §2, §3

Solubility in buffer = assay type: physicochemical
Procedure: In some embodiments, buffered solutions containing relatively lower amounts of salts, particularly including phosphate salts, are added to the immunogenic composition, or other preserved multi-dose formulation, to improve the solubility of the octenidine. This is based on Applicants' unexpected discovery that octenidine is less soluble in routinely used phosphate buffered saline (PBS). […] As such, in some embodiments, multi-dose formulations including octenidine contain less phosphate than standard PBS. Accordingly, in some embodiments, the buffer may contain for 100 L about 5 g of NaH2PO4 and about 200 g of Sodium bicarbonate (instead of standard PBS, which contains about a 20:1 ratio of Na2HPO4 to KH2PO4).

[1] = system: S. aureus, P. aeruginosa, C. albicans, A. brasiliensis; test: Preservative efficacy in TS6 oil-in-water emulsion vaccine, overall verdict; assay type: cell-based; details: 100 μg/ml alone; oily vaccine environment; previous experiment
Procedure: as §2
For each concentration of preservative (or preservative combination), dilution neutralization and other testing was carried out as disclosed in Example 1. The “TS6” formulation is an oil-in-water emulsion, described in U.S. Pat. No. 7,371,395 B2 (to Merial, Inc.; see especially Example 1). […]

panel of pathogens = details: cited from earlier work
wound healing = details: cited from earlier work

`CCCCCCCCN=c1ccn(CCCCCCCCCCn2ccc(=NCCCCCCCC)cc2)cc1.Cl.Cl` [Octenidine Dihydrochloride, Octenidine dihydrochloride] showed a log reduction (Pseudomonas aeruginosa; 0.1 mg/mL, 28 d) greater than 5.1 log, a viable count (Pseudomonas aeruginosa; 0.1 mg/mL, 28 d) of less than 10 and a viable count (Pseudomonas aeruginosa; 0.1 mg/mL, T0) of less than 10. It also gave a log reduction (Pseudomonas aeruginosa; 1 mg/mL, 6 h) greater than 5.1 log, a viable count (Pseudomonas aeruginosa; 1 mg/mL, 6 h) of less than 10 and a log reduction (Pseudomonas aeruginosa; 1 mg/mL, 24 h) greater than 5.1 log. It also gave a viable count (Pseudomonas aeruginosa; 1 mg/mL, 24 h) of less than 10, a log reduction (Pseudomonas aeruginosa; 1 mg/mL, 7 d) greater than 5.1 log and a viable count (Pseudomonas aeruginosa; 1 mg/mL, 7 d) of less than 10. It also gave a log reduction (Pseudomonas aeruginosa; 1 mg/mL, 14 d) greater than 5.1 log, a viable count (Pseudomonas aeruginosa; 1 mg/mL, 14 d) of less than 10 and a log reduction (Pseudomonas aeruginosa; 1 mg/mL, 28 d) greater than 5.1 log. It also gave a viable count (Pseudomonas aeruginosa; 1 mg/mL, 28 d) of less than 10, a viable count (Pseudomonas aeruginosa; 1 mg/mL, T0) of less than 10 and a log reduction (Candida albicans; 0.001 mg/mL, 7 d) of 4 log. It also gave a viable count (Candida albicans; 0.001 mg/mL, 7 d) of 20, a log reduction (Candida albicans; 0.001 mg/mL, 14 d) of 4.3 log and a viable count (Candida albicans; 0.001 mg/mL, 14 d) of 10. For the same compound, the log reduction (Candida albicans; 0.001 mg/mL, 28 d) was greater than 4.3 log, the viable count (Candida albicans; 0.001 mg/mL, 28 d) was less than 10 and the viable count (Candida albicans; 0.001 mg/mL, T0) was 1.7 × 10^5. It also gave a log reduction (Candida albicans; 0.01 mg/mL, 7 d) greater than 4.3 log, a viable count (Candida albicans; 0.01 mg/mL, 7 d) of less than 10 and a log reduction (Candida albicans; 0.01 mg/mL, 14 d) greater than 4.3 log. For the same compound, the viable count (Candida albicans; 0.01 mg/mL, 14 d) was less than 10, the log reduction (Candida albicans; 0.01 mg/mL, 28 d) was greater than 4.3 log and the viable count (Candida albicans; 0.01 mg/mL, 28 d) was less than 10. The viable count (Candida albicans; 0.01 mg/mL, T0) was 2 × 10^3, the log reduction (Candida albicans; 0.1 mg/mL, 7 d) was greater than 4.3 log and the viable count (Candida albicans; 0.1 mg/mL, 7 d) was less than 10. It also gave a log reduction (Candida albicans; 0.1 mg/mL, 14 d) greater than 4.3 log, a viable count (Candida albicans; 0.1 mg/mL, 14 d) of less than 10 and a log reduction (Candida albicans; 0.1 mg/mL, 28 d) greater than 4.3 log. The viable count (Candida albicans; 0.1 mg/mL, 28 d) was less than 10, the viable count (Candida albicans; 0.1 mg/mL, T0) was less than 10 and the log reduction (Candida albicans; 1 mg/mL, 7 d) was greater than 4.3 log. The viable count (Candida albicans; 1 mg/mL, 7 d) was less than 10, the log reduction (Candida albicans; 1 mg/mL, 14 d) was greater than 4.3 log and the viable count (Candida albicans; 1 mg/mL, 14 d) was less than 10. For the same compound, the log reduction (Candida albicans; 1 mg/mL, 28 d) was greater than 4.3 log, the viable count (Candida albicans; 1 mg/mL, 28 d) was less than 10 and the viable count (Candida albicans; 1 mg/mL, T0) was less than 10. The log reduction (Aspergillus brasiliensis; 0.001 mg/mL, 7 d) was 0 log, the viable count (Aspergillus brasiliensis; 0.001 mg/mL, 7 d) was 1.7 × 10^5 and the log reduction (Aspergillus brasiliensis; 0.001 mg/mL, 14 d) was 0.1 log. For the same compound, the viable count (Aspergillus brasiliensis; 0.001 mg/mL, 14 d) was 1.4 × 10^5, the log reduction (Aspergillus brasiliensis; 0.001 mg/mL, 28 d) was 0.3 log and the viable count (Aspergillus brasiliensis; 0.001 mg/mL, 28 d) was 1.0 × 10^5. The viable count (Aspergillus brasiliensis; 0.001 mg/mL, T0) was 2.4 × 10^5, the log reduction (Aspergillus brasiliensis; 0.01 mg/mL, 7 d) was 0.7 log and the viable count (Aspergillus brasiliensis; 0.01 mg/mL, 7 d) was 3.8 × 10^4. For the same compound, the log reduction (Aspergillus brasiliensis; 0.01 mg/mL, 14 d) was 0.8 log, the viable count (Aspergillus brasiliensis; 0.01 mg/mL, 14 d) was 3.2 × 10^4 and the log reduction (Aspergillus brasiliensis; 0.01 mg/mL, 28 d) was 0.8 log. The viable count (Aspergillus brasiliensis; 0.01 mg/mL, T0) was 2.8 × 10^5, the log reduction (Aspergillus brasiliensis; 0.1 mg/mL, 7 d) was 0.4 log and the viable count (Aspergillus brasiliensis; 0.1 mg/mL, 7 d) was 7.5 × 10^4. The log reduction (Aspergillus brasiliensis; 0.1 mg/mL, 14 d) was 1.3 log, the viable count (Aspergillus brasiliensis; 0.1 mg/mL, 14 d) was 1.0 × 10^4 and the log reduction (Aspergillus brasiliensis; 0.1 mg/mL, 28 d) was 0.8 log. The viable count (Aspergillus brasiliensis; 0.1 mg/mL, 28 d) was 2.8 × 10^4, the viable count (Aspergillus brasiliensis; 0.1 mg/mL, T0) was 1.7 × 10^5 and the log reduction (Aspergillus brasiliensis; 1 mg/mL, 7 d) was 0.8 log. For the same compound, the viable count (Aspergillus brasiliensis; 1 mg/mL, 7 d) was 2.9 × 10^4, the log reduction (Aspergillus brasiliensis; 1 mg/mL, 14 d) was 1 log and the viable count (Aspergillus brasiliensis; 1 mg/mL, 14 d) was 1.7 × 10^4. The log reduction (Aspergillus brasiliensis; 1 mg/mL, 28 d) was 1.1 log, the viable count (Aspergillus brasiliensis; 1 mg/mL, 28 d) was 1.4 × 10^4 and the viable count (Aspergillus brasiliensis; 1 mg/mL, T0) was 1.6 × 10^5. The solubility (Solubility in buffer; routinely used phosphate buffered saline (PBS)) was “less soluble”, the solubility (Solubility in buffer; sodium phosphate replaced with sodium bicarbonate) was “provided the required solubility” and the preservative efficacy [1] was “did not exhibit satisfactory preservative efficacy”. For the same compound, the “Efficacy: spectrum” value (panel of pathogens) was “Broad spectrum”, the MIC (panel of pathogens) was “MIC ≤1 μg/ml” and the “Cytotoxicity data: demonstrate any adverse effect to wound healing” value (wound healing) was “Cytotoxicity data failed to”.
